For this experiment, the target named is T1, human TRPV4 (Homo sapiens, UniProt Q9HBA0).
T1 construct: host or cells: tetracycline-inducible Flp-In T-REx 293 cells
The experiment in a line: Hypotonicity-induced Ca2+ influx (Fluo-4, FDSS). The format is cell-based. In short, it runs like this: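 Flp-In T-REx 293 cells with tetracycline-induced human TRPV4, loaded with Fluo-4 for 60 min at 25 °C. Compound added 5 min before hypotonic mannitol/CaCl2 solution. Ca2+ signal recorded for 4.5 min on FDSS.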

[1] abbreviates: Flp-In T-REx 293 cells expressing human TRPV4, examples listed under heading 'Human IC50<50 nM'.
Setting [2] is: Flp-In T-REx 293 cells stably expressing human TRPV4, compounds listed by potency bin (<10 nM Tables 96-1/96-2, <3 nM Table 97).

pIC50: −log10 of the molar value.

T1 sequence (Q9HBA0 whole entry): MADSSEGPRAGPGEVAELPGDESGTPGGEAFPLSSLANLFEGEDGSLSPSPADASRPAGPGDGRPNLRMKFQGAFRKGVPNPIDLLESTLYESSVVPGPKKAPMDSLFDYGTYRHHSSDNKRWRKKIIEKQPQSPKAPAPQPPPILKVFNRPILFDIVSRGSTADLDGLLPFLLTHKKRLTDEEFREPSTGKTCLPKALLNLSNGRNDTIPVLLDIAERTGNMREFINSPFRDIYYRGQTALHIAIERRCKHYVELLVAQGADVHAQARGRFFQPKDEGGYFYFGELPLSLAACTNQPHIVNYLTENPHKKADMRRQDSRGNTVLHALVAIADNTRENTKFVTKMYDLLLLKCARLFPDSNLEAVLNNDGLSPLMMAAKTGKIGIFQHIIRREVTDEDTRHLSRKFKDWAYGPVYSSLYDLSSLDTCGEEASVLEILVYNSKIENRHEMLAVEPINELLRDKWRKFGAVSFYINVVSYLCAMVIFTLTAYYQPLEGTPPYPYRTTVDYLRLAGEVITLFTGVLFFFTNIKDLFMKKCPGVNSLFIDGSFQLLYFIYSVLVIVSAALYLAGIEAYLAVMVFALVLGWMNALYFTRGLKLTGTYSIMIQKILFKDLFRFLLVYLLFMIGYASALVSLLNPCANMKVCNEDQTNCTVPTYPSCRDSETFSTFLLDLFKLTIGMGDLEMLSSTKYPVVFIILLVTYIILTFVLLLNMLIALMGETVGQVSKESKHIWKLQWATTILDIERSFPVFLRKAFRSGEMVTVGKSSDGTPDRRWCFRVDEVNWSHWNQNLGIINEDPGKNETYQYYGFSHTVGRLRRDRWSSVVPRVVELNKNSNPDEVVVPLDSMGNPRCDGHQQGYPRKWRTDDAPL

Consider `CC(C)c1cccc(-c2cccc([C@@H](O)C(=O)N3CCCc4nc(C5(c6cccc(Cl)c6)CC5)[nH]c(=O)c4C3)c2)c1` [50-9], for which the pIC50 (commonly the IC50 on a negative log10 scale, so that one unit is a factor of ten) is, setting by setting: under setting [1], over 7.30; under setting [2], over 8.52.
For the compound `O=C([C@H](O)c1cccc(-c2cccc(C3CC3)c2)c1)N1CCCc2nc(C3(c4cccc(Cl)c4)CC3)[nH]c(=O)c2C1` [50-10], the pIC50 is, setting by setting: under setting [1], over 7.30; under setting [2], over 8.00.
`O=C([C@H](O)c1cccc(-c2ccnc(C(F)(F)F)c2)c1)N1CCCc2nc(C3(c4cccc(Cl)c4)CC3)[nH]c(=O)c2C1` [50-11]: the pIC50 is over 7.30 under setting [1] and over 8.52 under setting [2].
The corresponding values for `O=C([C@H](O)c1cccc(-c2cccc(OCc3ccccc3)c2)c1)N1CCCc2nc(C3(c4cccc(Cl)c4)CC3)[nH]c(=O)c2C1` [50-12] are over 7.30 and over 8.00.
The corresponding values for `CC(C)Oc1cccc(-c2cccc([C@@H](O)C(=O)N3CCCc4nc(C5(c6cccc(Cl)c6)CC5)[nH]c(=O)c4C3)c2)c1` [50-13] are over 7.30 and over 8.00.
The corresponding values for `O=C([C@H](O)c1cccc(-c2cccc(Cl)c2)c1)N1CCCc2nc(C3(c4cccc(Cl)c4)CC3)[nH]c(=O)c2C1` [50-14] are over 7.30 and over 8.00.
Take `O=C([C@H](O)c1cccc(-c2ccc3c(c2)OC(F)(F)O3)c1)N1CCCc2nc(C3(c4cccc(Cl)c4)CC3)[nH]c(=O)c2C1` [50-15]: the pIC50 was over 7.30 under setting [1] and over 8.52 under setting [2].
The corresponding values for `O=C([C@H](O)c1cccc(-c2cc(Cl)cc(OC(F)(F)F)c2)c1)N1CCCc2nc(C3(c4cccc(Cl)c4)CC3)[nH]c(=O)c2C1` [50-16] are over 7.30 and over 8.00.
With `O=C([C@H](O)c1cccc(-c2cc(Cl)cc(C(F)(F)F)c2)c1)N1CCCc2nc(C3(c4cccc(Cl)c4)CC3)[nH]c(=O)c2C1` [50-17], the pIC50 under setting [1] is over 7.30 and the pIC50 under setting [2] was over 8.00.
Consider `O=C([C@H](O)c1cccc(-c2cc(F)cc(Cl)c2)c1)N1CCCc2nc(C3(c4cccc(Cl)c4)CC3)[nH]c(=O)c2C1` [50-18], for which the negative logarithm of the IC50 (pIC50) by setting is: under setting [1], over 7.30; under setting [2], over 8.52.
The corresponding values for `Cc1cc(-c2cccc([C@@H](O)C(=O)N3CCCc4nc(C5(c6cccc(Cl)c6)CC5)[nH]c(=O)c4C3)c2)ccc1Cl` [50-19] are over 7.30 and over 8.52.
The corresponding values for `N#Cc1ccc(-c2cccc([C@@H](O)C(=O)N3CCCc4nc(C5(c6cccc(Cl)c6)CC5)[nH]c(=O)c4C3)c2)cc1` [50-20] are over 7.30 and over 8.52.
As for `O=C([C@H](O)c1cccc(-c2ccc(F)c(Cl)c2)c1)N1CCCc2nc(C3(c4cccc(Cl)c4)CC3)[nH]c(=O)c2C1` [50-21], the pIC50 runs as follows: under setting [1], over 7.30; under setting [2], over 8.00.
The corresponding values for `CC(C)(C)c1ccc(-c2cccc([C@@H](O)C(=O)N3CCCc4nc(C5(c6cccc(Cl)c6)CC5)[nH]c(=O)c4C3)c2)cc1` [50-22] are over 7.30 and over 8.00.
As to `O=C([C@H](O)c1cccc(-c2ccc(Cl)c(C(F)(F)F)c2)c1)N1CCCc2nc(C3(c4cccc(Cl)c4)CC3)[nH]c(=O)c2C1` [50-23], the pIC50 reads like this: under setting [1], over 7.30; under setting [2], over 8.00.
The compound `O=C([C@H](O)c1cccc(-c2ccc(C(F)(F)F)cc2)c1)N1CCCc2nc(C3(c4cccc(Cl)c4)CC3)[nH]c(=O)c2C1` [50-24] had a pIC50 under setting [1] of over 7.30 and a pIC50 under setting [2] of over 8.00.
The corresponding values for `N#Cc1cccc(-c2cccc([C@@H](O)C(=O)N3CCCc4nc(C5(c6cccc(Cl)c6)CC5)[nH]c(=O)c4C3)c2)c1` [50-25] are over 7.30 and over 8.52.
Consider `O=C([C@H](O)c1cccc(-c2ccc(OC(F)(F)F)cc2)c1)N1CCCc2nc(C3(c4cccc(Cl)c4)CC3)[nH]c(=O)c2C1` [50-26], for which the pIC50 reads like this: under setting [1], over 7.30; under setting [2], over 8.00.
The corresponding values for `CC(C)c1cccc(C2(c3nc4c(c(=O)[nH]3)CN(C(=O)C(O)c3cccc(-c5ccnc(C(F)(F)F)c5)c3)CCC4)CC2)c1` (stereo not drawn) [51-1] are over 7.30 and over 8.00.
Compound `CC(C)c1cccc(C2(c3nc4c(c(=O)[nH]3)CN(C(=O)[C@H](O)c3cccc(-c5cccc(C(F)(F)F)c5)c3)CCC4)CC2)c1` [51-2] had a pIC50 under setting [1] of over 7.30 and a pIC50 under setting [2] of over 8.00.
The corresponding values for `CC(C)c1cccc(C2(c3nc4c(c(=O)[nH]3)CN(C(=O)[C@H](O)c3cccc(-c5cccc(OC(F)(F)F)c5)c3)CCC4)CC2)c1` [51-3] are over 7.30 and over 8.00.
The corresponding values for `CC(C)c1cccc(C2(c3nc4c(c(=O)[nH]3)CN(C(=O)[C@H](O)c3cccc(-c5cccc(Cl)c5)c3)CCC4)CC2)c1` [51-4] are over 7.30 and over 8.00.
As to `CC(C)c1cccc(C2(c3nc4c(c(=O)[nH]3)CN(C(=O)[C@H](O)c3cccc(-c5cccc(C(C)(C)C)c5)c3)CCC4)CC2)c1` [51-5], the negative-log IC50 (pIC50) is, setting by setting: under setting [1], over 7.30; under setting [2], over 8.00.
The corresponding values for `CC(C)c1cccc(C2(c3nc4c(c(=O)[nH]3)CN(C(=O)[C@H](O)c3cccc(-c5ccnc(C(F)(F)F)c5)c3)CCC4)CC2)c1` [51-6] are over 7.30 and over 8.52.
The corresponding values for `CC(C)c1cccc(C2(c3nc4c(c(=O)[nH]3)CN(C(=O)[C@H](O)c3cccc(C5=CCCC5)c3)CCC4)CC2)c1` [51-7] are over 7.30 and over 8.52.
Consider `CC(C)c1cccc(C2(c3nc4c(c(=O)[nH]3)CN(C(=O)[C@H](O)c3cccc(-c5cccc(F)c5)c3)CCC4)CC2)c1` [51-8], for which the pIC50 is, setting by setting: under setting [1], over 7.30; under setting [2], over 8.00.
On to `O=C([C@H](O)c1cccc(-c2cccc(F)c2)c1)N1CCCc2nc(C3(c4cccc(C5CCCCC5)c4)CC3)[nH]c(=O)c2C1` [52-1], for which the negative logarithm of the IC50 (pIC50) was over 7.30 under setting [1] and over 8.00 under setting [2].
`O=C([C@H](O)c1cccc(-c2cccc(C(F)(F)F)c2)c1)N1CCCc2nc(C3(c4cccc(C5CCCCC5)c4)CC3)[nH]c(=O)c2C1` [52-2]: the negative logarithm of the IC50 (pIC50) by setting is: under setting [1], over 7.30; under setting [2], over 8.00.
For `O=C([C@H](O)c1cccc(-c2cccc(Cl)c2)c1)N1CCCc2nc(C3(c4cccc(C5CCCCC5)c4)CC3)[nH]c(=O)c2C1` [52-3], the pIC50 under setting [1] was over 7.30 and the pIC50 under setting [2] is over 8.52.
The corresponding values for `O=C([C@H](O)c1cccc(-c2cccc(OC(F)(F)F)c2)c1)N1CCCc2nc(C3(c4cccc(C5CCCCC5)c4)CC3)[nH]c(=O)c2C1` [52-4] are over 7.30 and over 8.00.
The corresponding values for `CC(C)(C)c1cccc(-c2cccc([C@@H](O)C(=O)N3CCCc4nc(C5(c6cccc(C7CCCCC7)c6)CC5)[nH]c(=O)c4C3)c2)c1` [52-5] are over 7.30 and over 8.00.
For `O=C([C@H](O)c1cccc(-c2csc3ccccc23)c1)N1CCCc2nc(C3(c4cccc(C5CCCCC5)c4)CC3)[nH]c(=O)c2C1` [52-6], the negative logarithm of the IC50 (pIC50) is over 7.30 under setting [1] and over 8.00 under setting [2].
As to `O=C([C@H](O)c1cccc(-c2coc3ccccc23)c1)N1CCCc2nc(C3(c4cccc(C5CCCCC5)c4)CC3)[nH]c(=O)c2C1` [52-7], the pIC50 runs as follows: under setting [1], over 7.30; under setting [2], over 8.00.
The corresponding values for `O=C([C@H](O)c1cccc(-c2cccc(C(F)(F)F)c2)c1)N1CCCc2nc(C3(c4cccc(Oc5ccccc5)c4)CC3)[nH]c(=O)c2C1` [52-8] are over 7.30 and over 8.00.
The corresponding values for `O=C([C@H](O)c1cccc(-c2cccc(C(F)(F)F)c2)c1)N1CCCc2nc(C3(c4cccc(-c5csc6ccccc56)c4)CC3)[nH]c(=O)c2C1` [52-9] are over 7.30 and over 8.00.
Consider `O=C([C@H](O)c1cccc(-c2cccc(OC(F)(F)F)c2)c1)N1CCCc2nc(C3(c4cccc(-c5csc6ccccc56)c4)CC3)[nH]c(=O)c2C1` [52-10], for which the pIC50 was over 7.30 under setting [1] and over 8.00 under setting [2].
The corresponding values for `O=C([C@H](O)c1cccc(-c2cccc(Cl)c2)c1)N1CCCc2nc(C3(c4cccc(-c5csc6ccccc56)c4)CC3)[nH]c(=O)c2C1` [52-11] are over 7.30 and over 8.00.
`CC(C)(C)c1cccc(-c2cccc([C@@H](O)C(=O)N3CCCc4nc(C5(c6cccc(-c7csc8ccccc78)c6)CC5)[nH]c(=O)c4C3)c2)c1` [52-12] had a pIC50 under setting [1] of over 7.30 and a pIC50 under setting [2] of over 8.00.
For `CC(C)c1cccc(-c2cccc([C@@H](O)C(=O)N3CCCc4nc(C5(c6cccc(-c7csc8ccccc78)c6)CC5)[nH]c(=O)c4C3)c2)c1` [52-13], the pIC50 reads like this: under setting [1], over 7.30; under setting [2], over 8.00.
Take `O=C([C@H](O)c1cccc(-c2cc(F)cc(Cl)c2)c1)N1CCCc2nc(C3(c4cccc(-c5csc6ccccc56)c4)CC3)[nH]c(=O)c2C1` [52-14]: the pIC50 is, setting by setting: under setting [1], over 7.30; under setting [2], over 8.00.
`O=C([C@H](O)c1cccc(-c2cccc(C3CC3)c2)c1)N1CCCc2nc(C3(c4cccc(-c5csc6ccccc56)c4)CC3)[nH]c(=O)c2C1` [52-15] gave a negative logarithm of the IC50 (pIC50) under setting [1] of over 7.30 and a pIC50 under setting [2] of over 8.00.
With `O=C([C@H](O)c1cccc(-c2cccc(C(F)(F)F)c2)c1)N1CCCc2nc(C3(c4cccs4)CC3)[nH]c(=O)c2C1` [53-1], the pIC50 is, setting by setting: under setting [1], over 7.30; under setting [2], over 8.00.
Regarding `O=C([C@H](O)c1cccc(-c2cccc(OC(F)(F)F)c2)c1)N1CCCc2nc(C3(c4cccs4)CC3)[nH]c(=O)c2C1` [53-2], the pIC50 runs as follows: under setting [1], over 7.30; under setting [2], over 8.52.
`CC(C)c1cccc(-c2cccc([C@@H](O)C(=O)N3CCCc4nc(C5(c6cccs6)CC5)[nH]c(=O)c4C3)c2)c1` [53-3]: the pIC50 is over 7.30 under setting [1] and over 8.00 under setting [2].
As for `CC(C)(C)c1cccc(-c2cccc([C@@H](O)C(=O)N3CCCc4nc(C5(c6cccs6)CC5)[nH]c(=O)c4C3)c2)c1` [53-4], the pIC50 is over 7.30 under setting [1] and over 8.00 under setting [2].

For the origin of these results see patent US12673946B2, “Pyrimidin-4(3H)-one derivatives as TRPV4 antagonists” (RaQualia Pharma Inc., priority 2020, dated 2026).
